Measurements: article PMC11984392, “EphA2-targeted alpha-particle theranostics for enhancing PDAC treatment” (Theranostics, 2025)
Read-outs that look alike come from different tables or passages of the source. *1 amine or outer side, *2 acyl side, *3 side chain or, on linkers, in order; H or OH if unused. Where a SMILES comes first, the peptide text is derived from it. Bridges are numbered along the chain shown (N, C = ends). [ ]: non-standard residue; d: D form. The star is where a group is joined. TATA = O=C(CC[*:1])N1CN(C(=O)CC[*:2])CN(C(=O)CC[*:3])C1; NOTA = O=C(O)CN1CCN(CC(=O)O)CCN(CC(=O)*)CC1; Hyp = O=C(O)[C@@H]1C[C@@H](O)CN1; hArg = N=C(N)NCCCC[C@H](N)C(=O)O; PEG2 = NCCOCCOCCC(=O)O; Sar = CNCC(=O)O

Legend:
Format in all cases: in vivo, NSG mice
[1] = Ex vivo biodistribution; details: both sexes, NSG, mouse, total radioactivity, 60 min p.i., mean ± SEM (n = 4 or 5)
Protocol: (§1) Animal studies were performed under Johns Hopkins University Animal Care and Use Committee (ACUC)-approved protocol (Principal investigator: Sridhar Nimmagadda, Ph.D. and Protocol number M021M175). Male and Female NSG mice (5-6 weeks old) were purchased from JHU immunocompromised core and used to establish xenografts by administering cells subcutaneously (top right flank, unless otherwise noted) to form various tumor models within 3-4 weeks. Following cell numbers were used: Panc1, AsPC1, BxPC3 (1 M), Hs766T and SU8686 (2 M), CFPAC and Panc1005 (5 M). Imaging or biodistribution studies (n = 3-5) were conducted on mice with tumor volumes of 100-200 mm^3. The Panc1 orthotopic tumor model was established by surgically implanting a 3-5 mm^3 section of Panc1 tumor xenograft directly onto the pancreas. The implanted tumors were allowed to grow and were ready for imaging after 10 days of implantation.
(§2) Mice with 100-200 mm^3 tumor volume were used for ex vivo biodistribution studies. For radiotracer pharmacokinetics and dosimetry studies, mice with Panc1 tumor xenograft received ~80 µCi (2.96 MBq) [^68Ga]AJ201 and were sacrificed at pre-determined time points (5, 30, 60, 90 and 120 min). All other mice were injected with ~50 µCi (1.85 MBq; 0.2 to 0.5 nmol) Ga-68 labeled radiotracer and were sacrificed at 60 min. The selected tissues were collected, weighed, counted, and their %ID/g values calculated for biodistribution analysis. For pharmacokinetics and dosimetry studies, selected tissues included blood, muscle, tumor, thymus, heart, lung, liver, pancreas, stomach, small intestine, large intestine, spleen, adrenals, kidney, bladder, femur, brain and tumor xenografts. For other studies, selected tissues were blood, muscle, tumor, heart, lung, liver, pancreas, small intestine, spleen, kidney.

[2] = tested on: BxPC3 tumor xenografts; experiment: Ex vivo biodistribution; details: BxPC3 xenograft; 60 min p.i.; mean ± SEM (n = 4 or 5)
Protocol: as §1, §2

[3] = tested on: CFPAC tumor xenografts; experiment: Ex vivo biodistribution; details: CFPAC xenograft; 60 min p.i.; mean ± SEM (n = 4 or 5)
Protocol: as §1, §2

CC(C)C[C@@H]1NC(=O)[C@@H]2CSCCC(=O)N3CN(CN(C3)C(=O)CCSC[C@H](NC(=O)[C@H](CC(=O)O)NC(=O)[C@H](CCCCNC(=N)N)NC(=O)[C@H](C)NC(=O)CNC(=O)CN(C)C(=O)CN(C)C(=O)CN(C)C(=O)[C@H](CCCNC(=N)N)NC(=O)CNC(=O)CCOCCOCCNC(=O)CN3CCN(CC(=O)O)CCN(CC(=O)O)CC3)C(=O)N3C[C@H](O)C[C@H]3C(=O)N[C@@H](CC(C)C)C(=O)N[C@@H](C(C)C)C(=O)N[C@@H](CC(N)=O)C(=O)N3CCC[C@H]3C(=O)N[C@@H](CC(C)C)C(=O)N2)C(=O)CCSC[C@@H](C(N)=O)NC(=O)[C@H](CCCCNC(=N)N)NC(=O)[C@H](Cc2c[nH]c3ccccc23)NC(=O)[C@@H](CC(=O)O)NC(=O)[C@@H]2CCCN2C(=O)[C@H](Cc2c[nH]cn2)NC1=O [[^68Ga]AJ201, metal not drawn] ({NOTA-PEG2}-GR[Sar][Sar][Sar]GA[hArg]DC[Hyp]LVNPLCLHP[dD]W[hArg]C-NH2; linker 10-17-24 via TATA)
tissue uptake at 1 h ([1]; pancreas, Panc1005 xenograft, read-out: Pancreas uptake): 0.21 ± 0.03 %ID/g | tissue uptake at 1 h ([1]; pancreas, Su8686 xenograft, read-out: Pancreas uptake): 0.22 ± 0.05 %ID/g | tissue uptake at 1 h ([1]; small intestine, AsPC1 xenograft, read-out: Small intestine uptake): 1.12 ± 0.08 %ID/g | tissue uptake at 1 h ([1]; small intestine, BxPC3 xenograft, read-out: Small intestine uptake): 0.32 ± 0.02 %ID/g | tissue uptake at 1 h ([1]; small intestine, Hs766T xenograft, read-out: Small intestine uptake): 0.62 ± 0.02 %ID/g | tissue uptake at 1 h ([1]; small intestine, Panc1005 xenograft, read-out: Small intestine uptake): 0.25 ± 0.03 %ID/g | tissue uptake at 1 h ([1]; small intestine, Su8686 xenograft, read-out: Small intestine uptake): 0.29 ± 0.05 %ID/g | tissue uptake at 1 h ([1]; spleen, AsPC1 xenograft, read-out: Spleen uptake): 1.61 ± 0.11 %ID/g | tissue uptake at 1 h ([1]; spleen, BxPC3 xenograft, read-out: Spleen uptake): 0.64 ± 0.05 %ID/g | tissue uptake at 1 h ([1]; spleen, CFPAC xenograft, read-out: Spleen uptake): 0.87 ± 0.15 %ID/g | tissue uptake at 1 h ([1]; spleen, Hs766T xenograft, read-out: Spleen uptake): 2.75 ± 0.65 %ID/g | tissue uptake at 1 h ([1]; spleen, Panc1005 xenograft, read-out: Spleen uptake): 0.52 ± 0.05 %ID/g | tissue uptake at 1 h ([1]; spleen, Su8686 xenograft, read-out: Spleen uptake): 0.6 ± 0.16 %ID/g | tissue uptake at 1 h ([1]; tumor, 50 uCi, CFPAC xenograft, read-out: Tumor uptake): 2.4 ± 0.2 %ID/g | tissue uptake at 1 h ([1]; tumor, AsPC1 xenograft, read-out: Tumor uptake): 4.01 ± 0.46 %ID/g | tissue uptake at 1 h ([1]; tumor, BxPC3 xenograft, read-out: Tumor uptake): 2.72 ± 0.37 %ID/g | tissue uptake at 1 h ([1]; tumor, Hs766T xenograft, read-out: Tumor uptake): 7.97 ± 2.83 %ID/g | tissue uptake at 1 h ([1]; tumor, Panc1005 xenograft, read-out: Tumor uptake): 5.31 ± 0.9 %ID/g | tissue uptake at 1 h ([1]; tumor, Su8686 xenograft, read-out: Tumor uptake): 7.66 ± 1 %ID/g | tissue to tissue ratio at 1 h ([1]; tumor/blood, AsPC1 xenograft, read-out: Tumor/blood ratio): 1.2 ± 0.06 | tissue to tissue ratio at 1 h ([1]; tumor/blood, BxPC3 xenograft, read-out: Tumor/blood ratio): 4.86 ± 0.92 | tissue to tissue ratio at 1 h ([1]; tumor/blood, CFPAC xenograft, read-out: Tumor/blood ratio): 4.53 ± 0.9 | tissue to tissue ratio at 1 h ([1]; tumor/blood, Hs766T xenograft, read-out: Tumor/blood ratio): 5.47 ± 0.81 | tissue to tissue ratio at 1 h ([1]; tumor/blood, Panc1005 xenograft, read-out: Tumor/blood ratio): 12.9 ± 2.38 | tissue to tissue ratio at 1 h ([1]; tumor/blood, Su8686 xenograft, read-out: Tumor/blood ratio): 14.2 ± 3.89 | tissue to tissue ratio at 1 h ([1]; tumor/muscle, AsPC1 xenograft, read-out: Tumor/Muscle ratio): 9.95 ± 1.49 | tissue to tissue ratio at 1 h ([1]; tumor/muscle, BxPC3 xenograft, read-out: Tumor/Muscle ratio): 15.2 ± 2.14 | tissue to tissue ratio at 1 h ([1]; tumor/muscle, CFPAC xenograft, read-out: Tumor/Muscle ratio): 12.1 ± 1.45 | tissue to tissue ratio at 1 h ([1]; tumor/muscle, Hs766T xenograft, read-out: Tumor/Muscle ratio): 17.2 ± 2.33 | tissue to tissue ratio at 1 h ([1]; tumor/muscle, Panc1005 xenograft, read-out: Tumor/Muscle ratio): 50.1 ± 10.2 | tissue to tissue ratio at 1 h ([1]; tumor/muscle, Su8686 xenograft, read-out: Tumor/Muscle ratio): 58 ± 11.5 | tissue to tissue ratio at 1 h ([1]; tumor/pancreas, AsPC1 xenograft, read-out: Tumor/Pancreas ratio): 6.23 ± 0.65 | tissue to tissue ratio at 1 h ([1]; tumor/pancreas, BxPC3 xenograft, read-out: Tumor/Pancreas ratio): 11 ± 1.71 | tissue to tissue ratio at 1 h ([1]; tumor/pancreas, CFPAC xenograft, read-out: Tumor/Pancreas ratio): 8.68 ± 1.24 | tissue to tissue ratio at 1 h ([1]; tumor/pancreas, Hs766T xenograft, read-out: Tumor/Pancreas ratio): 13.8 ± 2.3 | tissue to tissue ratio at 1 h ([1]; tumor/pancreas, Panc1005 xenograft, read-out: Tumor/Pancreas ratio): 26.9 ± 5.62 | tissue to tissue ratio at 1 h ([1]; tumor/pancreas, Su8686 xenograft, read-out: Tumor/Pancreas ratio): 39.8 ± 7.21 | Heart uptake [2]: 0.29 ± 0.01 %ID/g | Muscle uptake [3]: 0.21 ± 0.04 %ID/g | Small intestine uptake [3]: 0.51 ± 0.10 %ID/g
